Measured values published in patent EP4603105A1, “PHARMACEUTICAL COMPOSITION CONTAINING CYCLIC COMPOUND HAVING SELECTIVE KRAS INHIBITORY EFFECT AGAINST HRAS AND NRAS” (CHUGAI SEIYAKU KABUSHIKI KAISHA, priority 2022, dated 2024).
Where two headings read alike, the source gives them in different places.

Tests used:
[1] = biological target: GDP-bound KRAS wild-type protein (Homo sapiens, UniProt P01116); assay: Binding to KRAS by surface plasmon resonance (SPR), dissociation constant KD
How it was run: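 Affinity is measured by surface plasmon resonance at 30°C against captured, GDP-loaded RAS carrying a biotinylated Avi tag. Compounds are titrated by single-cycle kinetics, and KD comes from a 1:1 fit.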

HRAS wild-type protein = HRAS wild-type protein (Homo sapiens, UniProt P01112); assay: Binding to HRAS by surface plasmon resonance (SPR), KD and KD ratio to KRAS
How it was run: (§1)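 Compound binding is evaluated by SPR single-cycle kinetics, with concentrations added intermittently from low to high for 75 s each. Target surfaces carry GDP-loaded biotinylated Avi-RAS at about 100–300 RU, regenerated after each cycle; temperature 30°C. A 1:1 binding model gives KD.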

[2] = test system: human lung cancer strain NCI-H441; assay: NCI-H441 cell proliferation inhibitory activity (CellTiter-Glo, 4 days); assay type: cell-based; settings: read-out: NCl-H441 IC50
How it was run: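 Proliferation was scored by […] measured after the reagent was added to cultures kept at 37°C in 5% carbon dioxide.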

[3] = biological target: GDP-bound NRAS wild-type protein (Homo sapiens, UniProt P01111); assay: Binding to NRAS by surface plasmon resonance (SPR), KD and KD ratio to KRAS
How it was run: as §1

[4] = ratio of KD for HRAS wild-type protein to KD for KRAS
[5] = ratio of KD for GDP-bound NRAS wild-type protein to KD for KRAS
[6] = Single Cycle Kinetics, 1:1 binding model
[7] = ratio of KD with respect to HRAS wild-type protein to KD with respect to KRAS
[8] = 50% proliferation inhibitory concentration, four days
[9] = ratio of KD with respect to GDP-bound NRAS wild-type protein to KD with respect to KRAS

Chain of HRAS wild-type protein (P01112 whole entry): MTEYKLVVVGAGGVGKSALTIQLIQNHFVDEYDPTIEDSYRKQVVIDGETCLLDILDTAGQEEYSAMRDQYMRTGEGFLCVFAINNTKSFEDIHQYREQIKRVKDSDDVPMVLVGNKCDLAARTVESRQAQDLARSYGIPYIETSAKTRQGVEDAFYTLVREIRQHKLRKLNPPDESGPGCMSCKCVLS
Chain of GDP-bound NRAS wild-type protein (P01111 whole entry): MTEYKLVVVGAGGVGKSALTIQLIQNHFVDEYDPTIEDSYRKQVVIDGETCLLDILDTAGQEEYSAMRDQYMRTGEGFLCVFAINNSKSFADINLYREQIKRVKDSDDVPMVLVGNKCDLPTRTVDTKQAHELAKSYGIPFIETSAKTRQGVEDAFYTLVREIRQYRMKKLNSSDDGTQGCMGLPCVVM
Chain of GDP-bound KRAS wild-type protein (P01116 1-188 isoform P01116-2): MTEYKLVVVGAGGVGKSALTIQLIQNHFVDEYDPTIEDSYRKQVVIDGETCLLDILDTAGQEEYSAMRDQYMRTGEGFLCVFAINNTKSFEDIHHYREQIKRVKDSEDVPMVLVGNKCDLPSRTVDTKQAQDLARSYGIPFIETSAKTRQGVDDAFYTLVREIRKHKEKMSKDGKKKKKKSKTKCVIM

Kd ([1]; Single Cycle Kinetics)	IC50 ([2]; NCI-H441 cells, 4 days)	Kd [1, 6]	IC50 [2, 8]	Kd ([1]; 1:1 binding model)	SMILES	HRAS /KRAS (HRAS wild-type protein; [4])	NRAS /KRAS [3, 5]	HRAS /KRAS (HRAS wild-type protein; [7])	NRAS /KRAS [3, 9]
0.31 nM	10.5 nM				CCC[C@H]1C(=O)N[C@@H]([C@@H](C)CC)C(=O)N2CCC[C@H]2C(=O)N(C)[C@H]2C/C=C\CCN(C2=O)[C@@H](Cc2ccc(C(F)(F)F)cc2)C(=O)N(C)CC(=O)N[C@@H](CCc2ccc(C(F)(F)F)c(OC)c2)C(=O)N2CC[C@H](OC)[C@H]2C(=O)N(C)C2(CCC2)C(=O)N(C)[C@@H](C2CCCC2)C(=O)N(C)[C@H](C(=O)N(C)C)CC(=O)N1C [PP3241]	B (a compound having 3 or more and less than 10 is denoted as B)	A (a compound having 10 or more and less than 20 is denoted as A)		
0.097 nM	6 nM				C#CC[C@H]1C(=O)N[C@@H]([C@@H](C)CC)C(=O)N(C2CC2)CC(=O)N(C)[C@H]2C/C=C\CCN(C2=O)[C@@H](Cc2ccc(C(F)(F)F)cc2)C(=O)N(C)CC(=O)N[C@@H](CCc2ccc(C(F)(F)F)c(OC)c2)C(=O)N2C[C@H](OCC)C[C@H]2C(=O)N(C)C2(CCC2)C(=O)N(C)[C@@H](C2CCCC2)C(=O)N(C)[C@H](C(=O)N(C)C)CC(=O)N1C [PP3242]	A (a compound having 10 or more and less than 20 is denoted as A)	A (a compound having 10 or more and less than 20 is denoted as A)		
1.3 nM	11.6 nM				CCO[C@@H]1C[C@H]2C(=O)OC3(CCC3)C(=O)N(C)[C@@H](C3CCCC3)C(=O)N(C)[C@H](C(=O)N(C)C)CC(=O)N(C)[C@@H]([C@H](C)OC)C(=O)N[C@@H]([C@@H](C)CC)C(=O)N(C3CC3)CC(=O)N(C)[C@H]3C/C=C\CCN(C3=O)[C@@H](Cc3ccc(C(F)(F)F)cc3)C(=O)N(C)CC(=O)N[C@@H](CCc3ccc(C(F)(F)F)c(OC)c3)C(=O)N2C1 [PP3378]	A (a compound having 10 or more and less than 20 is denoted as A)	A (a compound having 10 or more and less than 20 is denoted as A)		
0.2 nM	8.3 nM				CCC[C@H]1C(=O)N[C@@H]([C@@H](C)CC)C(=O)N(C2CC2)CC(=O)N(C)[C@H]2C/C=C\CCN(C2=O)[C@@H](Cc2ccc(C(F)(F)F)cc2)C(=O)N(C)CC(=O)N[C@@H](CCc2cc(F)c(C(F)(F)F)c(F)c2)C(=O)N2CC[C@H](OC)[C@H]2C(=O)N(C)C2(CCC2)C(=O)N(C)[C@@H](C2CCCC2)C(=O)N(C)[C@H](C(=O)N(C)C)CC(=O)N1C [PP3282]	A (a compound having 10 or more and less than 20 is denoted as A)	A (a compound having 10 or more and less than 20 is denoted as A)		
2.5 nM	78.6 nM				CCCO[C@@H]1C[C@H]2C(=O)NC3(CC(C)(C)C3)C(=O)N(C)[C@@H](C3CCCC3)C(=O)N(C)[C@H](C(=O)N(C)CC)CC(=O)N[C@@H](COCC)C(=O)N[C@@H]([C@@H](C)CC)C(=O)N(C3CC3)CC(=O)N(C)[C@H]3C/C=C\CCN(C3=O)[C@@H](Cc3ccc(C)cc3)C(=O)N(C)CC(=O)N[C@@H](CCc3ccc(C(F)(F)F)c(Cl)c3)C(=O)N2C1 [PP3429]	A (a compound having 10 or more and less than 20 is denoted as A)	A (a compound having 10 or more and less than 20 is denoted as A)		
0.57 nM	33.1 nM				CCO[C@@H]1C[C@H]2C(=O)NC3(CC(C)(C)C3)C(=O)N(C)[C@@H](C3CCCC3)C(=O)N(C)[C@H](C(=O)N(C)C)CC(=O)N(C)[C@@H]([C@H](C)OC)C(=O)N[C@@H]([C@@H](C)CC)C(=O)N(C3CC3)CC(=O)N(C)[C@H]3C/C=C\CCN(C3=O)[C@@H](Cc3ccc(C(F)(F)F)cc3)C(=O)N(C)CC(=O)N[C@@H](CCc3ccc(C(F)(F)F)c(OC)c3)C(=O)N2C1 [PP3173]	B (a compound having 3 or more and less than 10 is denoted as B)	B (a compound having 3 or more and less than 10 is denoted as B)		
0.49 nM	12.9 nM				CCC[C@H]1C(=O)N[C@@H]([C@@H](C)CC)C(=O)N2CCC[C@H]2C(=O)N(C)[C@H]2C/C=C\CCN(C2=O)[C@@H](Cc2ccc(C)cc2)C(=O)N(C)CC(=O)N[C@@H](CCc2cc(F)c(C(F)(F)F)c(F)c2)C(=O)N2C[C@H](OCC)C[C@H]2C(=O)NC2(CCCC2)C(=O)N(C)[C@@H](C2CCCC2)C(=O)N(C)[C@H](C(=O)N(C)C)CC(=O)N1C [PP3480]	A (a compound having 10 or more and less than 20 is denoted as A)	A (a compound having 10 or more and less than 20 is denoted as A)		
0.15 nM	11.4 nM				CCC[C@H]1C(=O)N[C@@H]([C@@H](C)CC)C(=O)N2CCC[C@H]2C(=O)N(C)[C@H]2C/C=C\CCN(C2=O)[C@@H](Cc2ccc(C)cc2)C(=O)N(C)CC(=O)N[C@@H](CCc2cc(F)c(C(F)(F)F)c(F)c2)C(=O)N2CC[C@H](OC)[C@H]2C(=O)N(C)C2(CCC2)C(=O)N(C)[C@@H](C2CCCC2)C(=O)N(C)[C@H](C(=O)N(C)C)CC(=O)N1C [PP3286]	A (a compound having 10 or more and less than 20 is denoted as A)	A (a compound having 10 or more and less than 20 is denoted as A)		

Further lines, the molecule ahead of its results:

SMILES	Kd ([1]; Single Cycle Kinetics)	IC50 ([2]; NCI-H441 cells, 4 days)	Kd [1, 6]	IC50 [2, 8]	Kd ([1]; 1:1 binding model)	HRAS /KRAS (HRAS wild-type protein; [4])	NRAS /KRAS [3, 5]	HRAS /KRAS (HRAS wild-type protein; [7])	NRAS /KRAS [3, 9]
CCO[C@@H]1C[C@H]2C(=O)NC3(CCC3)C(=O)N(C)[C@@H](C(CC)CC)C(=O)N(C)[C@H](C(=O)N(C)C)CC(=O)N(C)[C@@H](COC)C(=O)N[C@@H]([C@@H](C)CC)C(=O)N(C)CC(=O)N(C)[C@H]3C/C=C\CCN(C3=O)[C@@H](Cc3ccc(C(F)(F)F)cc3)C(=O)N(C)CC(=O)N[C@@H](CCc3ccc(Cl)c(Cl)c3)C(=O)N2C1 [PP1221]			0.4 nM	40.6 nM				A (a compound having 10 or more and less than 20 is denoted as A)	AA (a compound having 20 or more is denoted as AA)
CC[C@H](C)[C@@H]1NC(=O)[C@H](CC)N(C)C(=O)C[C@@H](C(=O)N(C)C)N(C)C(=O)[C@H](C2CCCC2)N(C)C(=O)C2(CCC2)NC(=O)[C@@H]2CCCN2C(=O)[C@H](CCc2cc(F)c(C(F)(F)F)c(F)c2)NC(=O)CN(C)C(=O)[C@H](CC2CCC(F)(F)CC2)N2CC/C=C\C[C@@H](C2=O)N(C)C(=O)CN(C)C1=O [PP1461]			0.27 nM	121 nM				A (a compound having 10 or more and less than 20 is denoted as A)	A (a compound having 10 or more and less than 20 is denoted as A)
CCOC[C@H]1C(=O)N[C@@H]([C@@H](C)CC)C(=O)N(C)CC(=O)N(C)[C@H]2C/C=C\CCN(C2=O)[C@@H](CC2CCCCC2)C(=O)N(C)CC(=O)N[C@@H](CCc2ccc(C(F)(F)F)c(OC)c2)C(=O)N2C[C@H](OCC)C[C@H]2C(=O)NC2(CC(C)(C)C2)C(=O)N(C)[C@@H](C(CC)CC)C(=O)N(C)[C@H](C(=O)N(C)C)CC(=O)N1C [PP2470]		118 nM			1.8 nM	A (a compound having 10 or more and less than 20 is denoted as A)	A (a compound having 10 or more and less than 20 is denoted as A)		
CCO[C@@H]1C[C@H]2C(=O)NC3(CC(C)(C)C3)C(=O)N(C)[C@@H](C(CC)CC)C(=O)N(C)[C@H](C(=O)N(C)C)CC(=O)N(C)[C@@H](COC)C(=O)N[C@@H]([C@@H](C)CC)C(=O)N(C3CC3)CC(=O)N(C)[C@H]3C/C=C\CCN(C3=O)[C@@H](CC3CCC(F)(F)CC3)C(=O)N(C)CC(=O)N[C@@H](CCc3ccc(Cl)c(Cl)c3)C(=O)N2C1 [PP2569]		185 nM			2.8 nM	A (a compound having 10 or more and less than 20 is denoted as A)	AA (a compound having 20 or more is denoted as AA)		
CCC[C@H]1C(=O)N[C@H]([C@@H](C)CC)C(=O)N2C[C@@H](OC)C[C@H]2C(=O)N(C)[C@H]2C/C=C\CCN(C2=O)[C@@H](Cc2ccc(C)cc2)C(=O)N(C)CC(=O)N[C@@H](CCc2ccc(C(F)(F)F)c(Cl)c2)C(=O)N2C[C@H](OCC)C[C@H]2C(=O)NC2(CCC2)C(=O)N(C)[C@@H](C2CCCC2)C(=O)N(C)[C@H](C(=O)N(C)C)CC(=O)N1C [PP2552]		30.5 nM			0.28 nM	B (a compound having 3 or more and less than 10 is denoted as B)	A (a compound having 10 or more and less than 20 is denoted as A)		
CCOC[C@H]1C(=O)N[C@@H]([C@@H](C)CC)C(=O)N(C2CC2)CC(=O)N(C)[C@@H]2C/C=C\CCN(C2=O)[C@@H](Cc2ccc(C)cc2)C(=O)N(C)CC(=O)N[C@@H](CCc2ccc(C(F)(F)F)c(OC)c2)C(=O)N2C[C@H](OCC)C[C@@H]2C(=O)NC2(CC(C)(C)C2)C(=O)N(C)[C@H](CC2CCC2)C(=O)N(C)[C@H](C(=O)N(C)C)CC(=O)N1C [PP2760]		144 nM			4.8 nM	B (a compound having 3 or more and less than 10 is denoted as B)	A (a compound having 10 or more and less than 20 is denoted as A)		
CCO[C@@H]1C[C@H]2C(=O)NC3(CCC3)C(=O)N(C)[C@@H](C3CCCC3)C(=O)N(C)[C@H](C(=O)N(C)C)CC(=O)N(C)[C@@H](CC3CC3)C(=O)N[C@@H]([C@@H](C)CC)C(=O)N(C)CC(=O)N(C)[C@H]3C/C=C\CCN(C3=O)[C@@H](Cc3ccc(C(F)(F)F)cc3)C(=O)N(C)CC(=O)N[C@@H](CCc3ccc(C(F)(F)F)c(OC)c3)C(=O)N2C1 [PP1247]			0.046 nM	6.4 nM				A (a compound having 10 or more and less than 20 is denoted as A)	A (a compound having 10 or more and less than 20 is denoted as A)
